Experiments:
[1] = physchem
Method: A. Preparation of Stabilizer Solutions:
The 0.5 M solution was not soluble; therefore an additional 2 ml of PPG was added.
An additional 1 ml PPG was added and further water bath sonicated.
The 0.5M solution was soluble after a 20-30 minute water bath sonication.
Very soluble after 10 minute water bath sonication.

[2] = Solubility of coumaric acid in DMSO/water (50% DMSO); type: physicochemical
Method: All stabilizers were prepared so that the final concentration of DMSO was 50%. Dissolve 34.7 mg in 106 μl DMSO, pH ≈3.0 138 μl H2O was added.

[3] = tested on: porcine heart valve cusps; test: Example 2: quantification of collagen crosslinks (pyd) by HPLC after gamma irradiation
Method: In this experiment, the effects of gamma irradiation were determined on porcine heart valve cusps in the presence of 50% DMSO and, optionally, a stabilizer, and in the presence of polypropylene glycol 400 (PPG400). 1.6 ml of a solution (stabilizer mixture or PPG400) was added to each sample and then the sample was incubated at 4° C. for 2.5 days. Valves and 1 ml of the solution in which they were incubated were then transferred into 2 ml irradiation vials. Each sample was irradiated with gamma irradiation at a rate of 1.723 kGy/hr at 3.6° C. to a total dose of 25 kGy. 3. Weighed the samples, transferred them to hydrolysis vials and then added 6 N HCl at a volume of 20 mg tissue/ml HCl: 5. Samples were hydrolyzed at 110° C. for approximately 23 hours. 13. Eluted crosslinks with 5 ml 2 N HCl into a low binding tube. 50 ml 2 N HCl:8.6 ml concentrated HCl adjusted to a volume of 50 ml with Nerl H2O. 1. Prepared 100-200 μl 1× solution in 1% heptafluorobutyric acid (HFBA). 2. Injected 50 μl on C18 HPLC column equilibrated with mobile phase. 3. Spectrofluorometer was set for excitation at 295 nm and emission at 395 nm. 4. Calculated the integrated fluorescence of Internal-Pyridinoline (Int-Pyd) per 1 μl of 1× solution of Int-Pyd.

[4] = tested on: porcine AV heart valve cusps; test: Example 3: HPLC analysis of frozen gamma irradiated AV heart valve cusps; settings: 30 kGy, 1.584 kGy/hr, −20° C.
Method: In this experiment, frozen porcine AV heart valves soaked in various solvents were gamma irradiated to a total dose of 30 kGy at 1.584 kGy/hr at −20° C. 5. Added 1.0 ml of the following to two of each of two tubes: dPBS, 50% DMSO and 50% DMSO with 200 mM sodium ascorbate (2M sodium ascorbate stock was diluted as follows: 400 μl (2M)+1.6 ml water+2ml 100% DMSO). 6. Incubated tubes at 4° C. with nutating for ˜46 hours. 8. All vials were frozen on dry ice. 9. Frozen samples were then irradiated at −20° C. at a rate of 1.584 kGy/hr to a total dose of 30 kGy.

O=C(O)/C=C/c1ccc(O)cc1 [Coumaric Acid]
solubility of stabilizer stock in PPG [1]: not 100% soluble
solubility in DMSO after addition of H2O ([2]; 34.7 mg in 106 μl DMSO, pH ≈3.0, 138 μl H2O added): precipitated out of solution
solubility in DMSO/H2O after pH adjustment ([2]; pH adjusted to 7.5 with 1 N NaOH): went back into solution

C[S+](C)[O-] [DMSO, dimethylsulfoxide]
Area of Pyd Peak ([3]; 0 kGy (not irradiated)): 87880
Area of Pyd Peak ([3]; 25 kGy, 1.723 kGy/hr, 3.6° C.): 49030
HPLC profile, irradiated versus not irradiated ([3]; 25 kGy, 1.723 kGy/hr, 3.6° C., DMSO at 50%): less effective
HPLC profile, irradiated versus not irradiated ([4]; 20% DMSO): reproduced these peaks more faithfully
HPLC profile, irradiated versus not irradiated ([4]; 50% DMSO): slightly more effective

Cc1c(C)c2c(c(C)c1O)CCC(C)(C(=O)O)O2 (centres unmarked) [Trolox C, 6-hydroxy-2,5,7,8-tetramethylchroma-2 carboxylic acid]
solubility of stabilizer stock in PPG [1]: not soluble
solubility ([1]; 25 °C, organic solvent or mixture, thermodynamic from solid): ≥ 125 mM

CCCOC(=O)c1cc(O)c(O)c(O)c1 [n-Propyl Gallate]
solubility of stabilizer stock in PPG [1]: soluble
